We go through one molecule from patent publication US8629330B2, “Methods and compositions for the inhibition of meristematic growth on cucurbit rootstock” (Syngenta Participations AG, priority 2012, dated 2014).

For data set [1], the system named is shoot apical meristem of cucurbit rootstock plant. In words: Inhibition of the shoot apical meristem of cucurbit rootstock. It counts as in vivo. The note with it: fatty alcohols about 2.3% (v/v); Oryzalin about 10 mM; sulfuric acid about 18N to about 9N; applied to shoot apical meristem.
Text: Rootstock plants, bottle gourd (Lagenaria siceraria var. ‘Emphasis’) or interspecific hybrid squash (C. maxima×C. moschata var. ‘Carnivor’), were sown in Fafard 3-b fertilizer-free mix and allowed to germinate. At the point when the cotyledons unfolded, (approx. 5-10 days after seeding) a droplet of a composition comprising fatty alcohols was applied to the shoot apical meristem of the seedling, between the cotyledons, so that the meristem was covered with solution. […] The droplet volume was 20 to 500 μL and was applied with a pipette (20-200 μL or 1000 μL volume capability, using plastic tips). Seedlings were watered prior to treatment, to avoid needing to water post-treatment, which can dilute or wash away the fatty alcohol solution and prevent burnout of the shoot apical meristem. The treated rootstock seedlings can then be grafted to the appropriate scion at about 1 to 21 days post-treatment. In this case, the rootstock seedling was grafted to a cucurbit scion at about 24 hours after the rootstock shoot apical meristem was first contacted with the fatty alcohol composition.
Maleic hydrazide (21.7%; Royal MH-30®; Chemtura Corp., Middlebury, Conn.) at a concentration of about 90 mg/ml was applied to the shoot apical meristem of rootstock plant. The treated rootstock plants were incubated for about 24 hours prior to grafting to a scion.
The subject of data set [2] is cucurbit rootstock seedling grafted to watermelon or melon scion.
Experimental: Grafting can be performed at about 1-21 days after a rootstock shoot apical meristem is treated with a fatty alcohol solution. Possible grafting methods include the following: 1) hole-insertion, in which the rootstock meristem is removed, a hole is punched into the old meristematic area with a bamboo needle, and the scion (cut at the end to both sharpen and expose vascular cambium tissue) is inserted into the prepared rootstock; and 2) one cotyledon, where the rootstock's meristem area and one cotyledon are removed, and the cut scion hypocotyl is adjoined to the resulting wound, stabilized with a clip, and allowed to heal. Once grafted, the plants are placed for approximately seven days in a healing chamber under high humidity for about the first 1-3 days, and then gradually decreasing humidity for the remaining days. After about seven days of healing, the grafted plants can be removed from the chamber and planted.
In this case, the cucurbit rootstock seedling as described in Example 1 was grafted to a cucurbit scion, watermelon (Citrullus lanatus subsp. vulgaris cv. ‘Tri-X-313’) or melon (Cucumis melo cv. ‘Athena’) at about 24 hours after the rootstock shoot apical meristem was first contacted with the fatty alcohol composition. Seven days were allowed for the graft to heal. […]

As for `O=S(=O)(O)O` [sulfuric acid, Sulfuric acid], the “effect on rootstock shoot apical meristem” value in data set [1] is recorded as “death of the shoot apical meristem”. The “successful grafts out of 2016 attempted grafts” value in data set [2] (grafted about 24 hours after treatment, fatty alcohols about 2.3% (v/v), maleic hydrazide about 90 mg/ml, Oryzalin about 10 mM, sulfuric acid about 18N to about 9N) is reported as “none were successful”. For the same molecule, the “effect on grafting tissues” value in data set [2] (sulfuric acid about 18N to about 9N applied to shoot apical meristem) was “the grafting tissues were also destroyed”.
